Where two headings read alike, the source gives them in different places. Marks after values point to notes of the source that are not given here.
What was measured:
VEGF = test: Plasma VEGF in mice after intravenous injection; type: in vivo, Swiss Webster mice; settings: mouse plasma, 20 mg/kg i.v., four hours after injection; for fold induction at 20 mg/kg: iv, 4 h, read-out: VEGF Fold Increase
Procedure: (§1) The effect of compounds of the present invention on expression of cytoprotective and neuroprotective factors in vivo was evaluated as follows. In one series of experiments, male Swiss Webster mice (29-34 g) were administered various compounds of the present invention via intravenous injection into the caudal tail vein. Animals treated by intravenous injection received a 6 ml/kg volume of either 5% Dextrose with an equimolar amount of NaOH or Meglumine (vehicle control) or 20 mg/kg of a compound of the present invention in 5% dextrose with an equimolar amount of NaOH or Meglumine. Four hours after injection, the animals were anesthetized and exsanguinated. Plasma samples were collected in EDTA and heparin coated microtainer tubes. Plasma samples were assayed for erythropoietin and VEGF using commercially-available ELISA kits purchased from R & D Systems (Minneapolis Minn.).

erythropoietin (EPO) [1] = test: EPO expression in Hep3B cells (QUANTIKINE immunoassay of conditioned media); type: cell-based, Human; settings: for Fold Increase Over Control: EPO, vs 1% DMSO control; for EPO: conditioned media after overnight incubation with compound
Procedure: The effect of compounds of the present invention on expression of cytoprotective and neuroprotective factors in cells was evaluated as follows. Human cells derived from hepatocarcinoma (Hep3B) tissue (see, e.g., American Type Culture Collection, Manassas Va.) were seeded into 35 mm culture dishes and grown at 37° C., 20% O2, 5% CO2 in Minimal Essential Medium (MEM), Earle's balanced salt solution (Mediatech Inc., Herndon Va.), 2 mM L-glutamine, 0.1 mM non-essential amino acids, 1 mM sodium pyruvate, and 10% FBS. When cell layers reached confluence, the media was replaced with OPTI-MEM media (Invitrogen Life Technologies, Carlsbad Calif.) and cell layers were incubated for approximately 24 hours in 20% O2, 5% CO2 at 37° C. Various compounds of the present invention or 1% DMSO (negative control) were then added to existing media and incubation was continued overnight.
Following incubation, the conditioned media was collected from cell cultures and analyzed for erythropoietin (EPO) expression using a QUANTIKINE immunoassay (R&D Systems, Inc., Minneapolis Minn.) according to the manufacturer's instructions.

[2] = system: vascular endothelial growth factor (VEGF); test: VEGF expression in Kelly neuroblastoma cells; type: cell-based; settings: for VEGF: conditioned media after overnight incubation
Procedure: (§2) The effect of compounds of the present invention on expression of cytoprotective and neuroprotective factors in neuroblastoma cells was evaluated as follows. Kelly neuroblastoma cells (see, e.g., DSMZ, cat# ACC-355, Braunschweig Germany) were treated with various compounds of the present invention or 1% DMSO (negative control). Following an overnight incubation, the conditioned media was collected from cell cultures and analyzed for erythropoietin (EPO) and vascular endothelial growth factor (VEGF) expression using a QUANTIKINE immunoassay (R&D Systems, Inc., Minneapolis Minn.) according to the manufacturer's instructions.

[3] = system: C57BL/6 mice, permanent occlusion of the MCA; test: Permanent middle cerebral artery occlusion (pMCAO) in C57BL/6 mice: infarct volume and edema; type: in vivo; settings: C57BL/6 mice pMCAO, 20-60 mg/kg i.v.; for inhibition in vivo at up to 20 mg/kg: Mus musculus, iv, 24 h, 24 hours after MCA occlusion, read-out: Percent Reduction in Infarct Volume
Procedure: The effect of compounds of the present invention on infarct volume and edema associated with stroke was examined in an animal model of ischemic stroke. In these studies, mice were subjected to permanent occlusion of the middle cerebral artery. Mice were anesthetized intraperitoneally with avertin (0.5 mg/g). Mice were then immobilized in a rodent stereotaxic frame (Kopf Instruments, Tujunga Calif.) and maintained with avertin as needed. The surgical area of the head was swabbed with 70% ethanol and a lateral incision was made between the right orbit and the right ear. […] The distal course of the middle cerebral artery (MCA) was visible through the translucent skull. A small burr-hole craniotomy was performed with a micro-drill (Fine Science Tools, Foster City Calif.). The meninges/dura was removed and the MCA was coagulated by bipolar diathermy. The muscle and soft tissue were replaced and the incision closed with vet-bond adhesive (3M, St. Paul Minn.). These studies were performed in two different mouse models of pMCAO as described below.
In one series of experiments, male C57BL/6 mice (25-35 g) were subjected to permanent occlusion of the MCA as described above. Compounds of the present invention were administered by intravenous injection at various times before or after MCA occlusion (see Table 7). Animals administered compound by intravenous injection received a 6 ml/kg volume of either 5% Dextrose with an equimolar amount of Meglumine (vehicle control) or 20-60 mg/kg of a compound of the present invention in 5% dextrose with an equimolar amount of Meglumine. Body temperature of the animals was maintained by use of a heating pad both during and after surgery. Twenty-four hours after MCA occlusion animals were euthanized with CO2 and their brains removed. After removal, the brain was sliced in 7 coronal sections, each 1 mm thick. The sections were placed rostral side down in a petri dish and stained with 1% Triphenyl tetrazolium chloride for 20 minutes at 37° C. for determination of infarct volume. Brain sections were then digitally photographed and analyzed for changes in infarct volume and extent of edema. Infarct volumes were determined by measuring the infarcted (i.e., non-stained) areas of each brain section and multiplying this value by the section thickness. Extent of edema was determined by the net increase in volume of the ipsilateral cortex compared to that of the contralateral cortex of brain sections.
The effect of compounds of the present invention administered at various times following the onset of stroke was examined further as follows. In these studies, changes in infarct volume were measured using an animal model of stroke when compounds of the present invention were administered from 0 to 8 hours following permanent MCA occlusion. In one series of experiments, male C57BL/6 mice (25-35 g) were subjected to permanent occlusion of the MCA as described above. Compound F was administered to the animals by a single intravenous bolus injection at various times up to 5 hours after MCA occlusion (see Table 8 below). Animals administered compound by intravenous injection received a 6 ml/kg volume of either 5% Dextrose with an equimolar amount of NaOH (vehicle control) or 60 mg/kg of Compound F in 5% dextrose with an equimolar amount of NaOH. Body temperature of the animals was maintained by use of a heating pad both during and after surgery. Changes in infarct volumes were determined as described above.
In another set of experiments, male C57BL/6 mice (25-35 g) were subjected to permanent occlusion of the MCA as described above. Compound F was administered by single intravenous bolus injection at various times up to 8 hours after MCA occlusion (see Table 9 below). Animals administered compound by intravenous injection received a 6 ml/kg volume of either 5% Dextrose with an equimolar amount of Meglumine (vehicle control) or 60 mg/kg of Compound F in 5% dextrose with an equimolar amount of Meglumine. […]

erythropoietin = test: Plasma EPO in mice after intravenous injection; type: in vivo, Swiss Webster mice; settings: mouse plasma, 20 mg/kg i.v., four hours after injection; for fold induction at 20 mg/kg: iv, 4 h, read-out: EPO Fold Increase
Procedure: as §1

erythropoietin (EPO) [4] = test: EPO expression in Kelly neuroblastoma cells; type: cell-based; settings: for EPO: conditioned media after overnight incubation
Procedure: as §2

[5] = compound given 4 hr after occlusion

Row | Structure (SMILES) | fold induction at 20 mg/kg (VEGF) | VEGF (VEGF) [pg/mL] | Fold Increase Over Control (erythropoietin (EPO) [1]) | EPO (erythropoietin (EPO) [1]) [mIU/ml] | VEGF Fold Increase [2] | VEGF [2] [pg/mL] | inhibition in vivo at up to 20 mg/kg ([3]; compound given 0 hr) [%] | fold induction at 20 mg/kg (erythropoietin) | EPO (erythropoietin; human EPO ELISA kit (*)) [mIU/ml] | EPO Fold Increase (erythropoietin (EPO) [4]) | EPO (erythropoietin (EPO) [4]) [mIU/ml] | inhibition in vivo at up to 20 mg/kg [3, 5] [%] | EPO (erythropoietin; mouse EPO ELISA kit (**)) [pg/mL] | Percent Reduction in Edema ([3]; compound given 0 hr)
1 | O=C(O)CNC(=O)c1ncc2cc(Oc3ccccc3)ccc2c1O [Compound AC, [(4-Hydroxy-7-phenoxy-isoquinoline-3-carbonyl)-amino]acetic acid] | 2.15 | 70 | 10.8 | 160.1 | 15.8 | 2503.8 | 17 | 2940 | 294 | 11.9 | 73.8 |  |  | 
2 | O=C(O)CNC(=O)c1nc(Br)c2ccsc2c1O [Compound AE, [(4-Bromo-7-hydroxy-thieno[3,2-c]pyridine-6-carbonyl)-amino]-acetic acid] | 1.45 | 29 | 3.0 | 12.6 | 2.7 | 3710.0 |  |  |  | 3.6 | 95.5 | 63 | 3825 | 
3 | Cc1nc2ccc(Oc3ccc4c(O)c(C(=O)NCC(=O)O)nc(C)c4c3)cc2o1 [Compound AF, {[4-Hydroxy-1-methyl-7-(2-methyl-benzooxazol-6-yloxy)-isoquinoline-3-carbonyl]-amino}-acetic acid] | 2.83 | 82 | 15.3 | 101.6 | 3.5 | 5124 | 21 | 21.3 |  | 12.24 | 231.3 |  | 192 | 
4 | O=Cc1nc(C(=O)NCC(=O)O)c(O)c2cc(Oc3ccccc3)ccc12 [Compound AK, [(1-Formyl-4-hydroxy-6-phenoxy-isoquinoline-3-carbonyl)-amino]-acetic acid] | 1.12 | 47 | 14.9 | 35.3 | 3.9 | 5698 | 13 | 62.8 |  | 2.23 | 42.2 |  | 2763 | −12* %
5 | N#Cc1nc(C(=O)NCC(=O)O)c(O)c2c(Oc3ccccc3)cccc12 [Compound AM, [(1-Cyano-4-hydroxy-5-phenoxy-isoquinoline-3-carbonyl)-amino]-acetic acid] | 0.38 | 24 | 8.2 | 44.3 | 4.0 | 5825 |  | 235 |  | 6.25 | 118.07 | 71 | 28206 | 
6 | CCc1c(O)c(C(=O)NCC(=O)O)nc2cc(Cl)ccc12 [Compound AT, [(7-Chloro-4-ethyl-3-hydroxy-quinoline-2-carbonyl)-amino]-acetic acid] | 1.02 | 43 | 30.0 | 81.0 | 8.3 | 11350 |  | 3.84 |  | 31.08 | 587.5 |  | 169 | 
7 | O=C(O)CNC(=O)c1nc2cc(-c3ccc(Cl)cc3)sc2cc1O [Compound Q, {[2-(4-Chloro-phenyl)-6-hydroxy-thieno[3,2-b]pyridine-5-carbonyl]-amino}-acetic acid] | 1.28 | 50 | 4.8 | 37.1 | 4.4 | 6369 |  | 1.61 |  | 2.80 | 52.9 |  | 17.1 | 
8 | N#Cc1nc(C(=O)NCC(=O)O)c(O)c2ccc(Cl)cc12 [Compound S, [(7-Chloro-1-cyano-4-hydroxy-isoquinoline-3-carbonyl)-amino]-acetic acid] | 0.68 | 15 | 10.1 | 12.5 | 1.9 | 725 |  | 40.8 |  | 2.89 | 40.4 |  | 460.6 | 
9 | O=C(O)CNC(=O)c1nc2cc(Cl)ccc2c(I)c1O [Compound T, [(7-Chloro-3-hydroxy-4-iodo-quinoline-2-carbonyl)-amino]acetic acid] | 1.24 | 31 | 49.3 | 100.7 | 5.6 | 8159 |  | 4.65 |  | 15.83 | 299.1 |  | 498 | 
